Measurements taken from ChEMBL document CHEMBL4152302, “Benzo[d]thiazole-2-carbanilides as new anti-TB chemotypes: Design, synthesis, biological evaluation, and structure-activity relationship” (Eur J Med Chem, 2018).

Columns and labels:
[1] = system: Mycobacterium tuberculosis; assay: Antimycobacterial activity against Mycobacterium tuberculosis H37Rv ATCC 27294 after 28 days by Two-fold serial dilution assay; format: functional; details: H37Rv ATCC 27294, 672 h
[2] = Cytotoxicity against mouse RAW264.7 cells assessed as inhibition of cell viability at 50 ug/ml after 72 hrs by MTT assay relative to control; format: cell-based; details: read-out: INH
[3] = Selectivity index, ratio of cytotoxic concentration for mouse RAW264.7 cells to MIC99 for Mycobacterium tuberculosis H37Rv ATCC 27294; format: toxicity; details: read-out: Selectivity Index

## O=C(Nc1ccccc1N1CCOCC1)c1nc2cc(C(F)(F)F)ccc2s1
[1]
  MIC: 30.7 µM

## O=C(Nc1ccc(Cl)cc1)c1nc2cc(Cl)ccc2s1
[1]
  MIC: 2.35 µM
[2]
  cytotoxicity at 72 h, 50 ug/ml: 28.9%
[3]
  selectivity ratio: 64

## O=C(Nc1cccc(F)c1)c1nc2cc(C(F)(F)F)ccc2s1
[1]
  MIC: 36.7 µM

## Cc1ccc(NC(=O)c2nc3cc(Cl)ccc3s2)cc1
[1]
  MIC: 5.15 µM
[2]
  cytotoxicity at 72 h, 50 ug/ml: 22.6%

## NNC(=O)c1ccncc1 [ISONIAZID]
[1]
  MIC: 0.098 µg/mL

## O=C(Nc1ccc(C(F)(F)F)cc1)c1nc2cc(Cl)ccc2s1
[1]
  MIC: 4.37 µM
[2]
  cytotoxicity at 72 h, 50 ug/ml: 41%

## O=C(Nc1ccccc1)c1nc2cc(C(F)(F)F)ccc2s1
[1]
  MIC: 77.6 µM

## O=C(Nc1ccc([N+](=O)[O-])cc1)c1nc2cc(C(F)(F)F)ccc2s1
[1]
  MIC: 2.12 µM
[2]
  cytotoxicity at 72 h, 50 ug/ml: 32.6%
[3]
  selectivity ratio: 64

## O=C(Nc1ccccc1C(F)(F)F)c1nc2cc(C(F)(F)F)ccc2s1
[1]
  MIC: 2 µM
[2]
  cytotoxicity at 72 h, 50 ug/ml: 27.8%
[3]
  selectivity ratio: 64

## O=C(Nc1ccc(C(F)(F)F)cc1)c1nc2ccccc2s1
[1]
  MIC: 2.42 µM
[2]
  cytotoxicity at 72 h, 50 ug/ml: 13.6%
[3]
  selectivity ratio: 64

## O=C(Nc1cccc(Cl)c1)c1nc2ccccc2s1
[1]
  MIC: 2.7 µM
[2]
  cytotoxicity at 72 h, 50 ug/ml: 26.8%
[3]
  selectivity ratio: 64

## O=C(Nc1ccc(Cl)cc1)c1nc2ccccc2s1
[1]
  MIC: > 86.6 µM

## CC[C@@H](CO)NCCN[C@@H](CC)CO [ETHAMBUTOL]
[1]
  MIC: 1.56 µg/mL

## O=C(Nc1ccc(N2CCOCC2)c(F)c1)c1nc2cc(C(F)(F)F)ccc2s1
[1]
  MIC: 29.4 µM

## O=C(Nc1cccc(Cl)c1)c1nc2cc(C(F)(F)F)ccc2s1
[1]
  MIC: 35 µM

## Cc1cc(C)c(NC(=O)c2nc3ccccc3s2)c(C)c1
[1]
  MIC: 5.26 µM
[2]
  cytotoxicity at 72 h, 50 ug/ml: 17.9%

## Cc1ccccc1NC(=O)c1nc2cc(C(F)(F)F)ccc2s1
[1]
  MIC: 74.3 µM

## O=C(Nc1ccc([N+](=O)[O-])cc1)c1nc2cc(Cl)ccc2s1
[1]
  MIC: 74.9 µM

## O=C(Nc1ccc(Br)cc1)c1nc2cc(C(F)(F)F)ccc2s1
[1]
  MIC: 62.3 µM

## O=C(Nc1ccccc1Cl)c1nc2cc(Cl)ccc2s1
[1]
  MIC: 77.3 µM

## O=C(Nc1ccccc1)c1nc2cc(Cl)ccc2s1
[1]
  MIC: 86.6 µM

## COc1ccc(NC(=O)c2nc3ccccc3s2)cc1
[1]
  MIC: 22 µM
[2]
  cytotoxicity at 72 h, 50 ug/ml: 24.6%

## Cc1cc(C)c(NC(=O)c2nc3cc(Cl)ccc3s2)c(C)c1
[1]
  MIC: 75.6 µM

## O=C(Nc1ccc(Cl)cc1)c1nc2cc(C(F)(F)F)ccc2s1
[1]
  MIC: 2.19 µM
[2]
  cytotoxicity at 72 h, 50 ug/ml: 36.7%
[3]
  selectivity ratio: 64

## O=C(Nc1cccc([N+](=O)[O-])c1)c1nc2ccccc2s1
[1]
  MIC: 2.61 µM
[2]
  cytotoxicity at 72 h, 50 ug/ml: 38.4%
[3]
  selectivity ratio: 64

## O=C(Nc1ccccc1Cl)c1nc2cc(C(F)(F)F)ccc2s1
[1]
  MIC: 70.1 µM

## COc1ccc(NC(=O)c2nc3cc(C(F)(F)F)ccc3s2)cc1
[1]
  MIC: 2.21 µM
[2]
  cytotoxicity at 72 h, 50 ug/ml: 35.7%
[3]
  selectivity ratio: 64

## COc1cccc(NC(=O)c2nc3ccccc3s2)c1
[1]
  MIC: > 87.9 µM

## O=C(Nc1ccc(Br)cc1)c1nc2cc(Cl)ccc2s1
[1]
  MIC: 4.24 µM
[2]
  cytotoxicity at 72 h, 50 ug/ml: 53.1%

## COc1ccccc1NC(=O)c1nc2cc(C(F)(F)F)ccc2s1
[1]
  MIC: 4.43 µM
[2]
  cytotoxicity at 72 h, 50 ug/ml: 43.2%

## Cc1ccc(NC(=O)c2nc3cc(C(F)(F)F)ccc3s2)cc1
[1]
  MIC: 4.64 µM
[2]
  cytotoxicity at 72 h, 50 ug/ml: 47.8%

## O=C(Nc1ccc(C(F)(F)F)cc1)c1nc2cc(C(F)(F)F)ccc2s1
[1]
  MIC: 64 µM

## Cc1cccc(NC(=O)c2nc3ccccc3s2)c1
[1]
  MIC: > 93.2 µM

## O=C(Nc1cccc([N+](=O)[O-])c1)c1nc2cc(Cl)ccc2s1
[1]
  MIC: 37.5 µM

## O=C(Nc1cccc(F)c1)c1nc2cc(Cl)ccc2s1
[1]
  MIC: 5.09 µM
[2]
  cytotoxicity at 72 h, 50 ug/ml: 29.1%

## O=C(Nc1ccc(N2CCOCC2)cc1)c1nc2cc(Cl)ccc2s1
[1]
  MIC: 2.09 µM
[2]
  cytotoxicity at 72 h, 50 ug/ml: 42.3%
[3]
  selectivity ratio: 64

## CCOC(=O)c1nc2cc(C(F)(F)F)ccc2s1
[1]
  MIC: 22.7 µM

## COc1ccccc1NC(=O)c1nc2ccccc2s1
[1]
  MIC: 11 µM
[2]
  cytotoxicity at 72 h, 50 ug/ml: 16.7%

## Cc1ccccc1NC(=O)c1nc2cc(Cl)ccc2s1
[1]
  MIC: 82.6 µM

## O=C(Nc1ccc(F)cc1)c1nc2cc(C(F)(F)F)ccc2s1
[1]
  MIC: 73.5 µM

## O=C(Nc1ccccc1N1CCOCC1)c1nc2ccccc2s1
[1]
  MIC: 36.8 µM

## O=C(Nc1ccccc1)c1nc2ccccc2s1
[1]
  MIC: 98.3 µM

## O=C(Nc1ccc(Br)cc1)c1nc2ccccc2s1
[1]
  MIC: > 75 µM

## COc1ccccc1NC(=O)c1nc2cc(Cl)ccc2s1
[1]
  MIC: 78.4 µM

## O=C(Nc1cccc(F)c1)c1nc2ccccc2s1
[1]
  MIC: 22.9 µM
[2]
  cytotoxicity at 72 h, 50 ug/ml: 20.9%

## O=C(Nc1ccc([N+](=O)[O-])cc1)c1nc2ccccc2s1
[1]
  MIC: 20.9 µM
[2]
  cytotoxicity at 72 h, 50 ug/ml: 35.6%

## O=C(Nc1ccccc1F)c1nc2cc(Cl)ccc2s1
[1]
  MIC: 5.09 µM
[2]
  cytotoxicity at 72 h, 50 ug/ml: 18.1%

## CO[C@H]1/C=C/O[C@@]2(C)Oc3c(C)c(O)c4c(O)c(c(/C=N/N5CCN(C)CC5)c(O)c4c3C2=O)NC(=O)/C(C)=C\C=C\[C@H](C)[C@H](O)[C@@H](C)[C@@H](O)[C@@H](C)[C@H](OC(C)=O)[C@@H]1C [RIFAMPIN]
[1]
  MIC: 0.197 µg/mL

## O=C(Nc1ccccc1F)c1nc2ccccc2s1
[1]
  MIC: 11.5 µM
[2]
  cytotoxicity at 72 h, 50 ug/ml: 24.9%

## O=C(Nc1ccc(N2CCOCC2)cc1)c1nc2cc(C(F)(F)F)ccc2s1
[1]
  MIC: 61.4 µM

## COc1cc(NC(=O)c2nc3ccccc3s2)cc(OC)c1OC
[1]
  MIC: 2.26 µM
[2]
  cytotoxicity at 72 h, 50 ug/ml: 30.1%
[3]
  selectivity ratio: 64

## Cc1cccc(NC(=O)c2nc3cc(Cl)ccc3s2)c1
[1]
  MIC: 20.6 µM
[2]
  cytotoxicity at 72 h, 50 ug/ml: 52.2%

## O=C(Nc1ccc(F)cc1)c1nc2cc(Cl)ccc2s1
[1]
  MIC: 5.09 µM
[2]
  cytotoxicity at 72 h, 50 ug/ml: 34.6%

## O=C(Nc1ccc(N2CCOCC2)cc1)c1nc2ccccc2s1
[1]
  MIC: 4.6 µM
[2]
  cytotoxicity at 72 h, 50 ug/ml: 18.9%

## COc1cccc(NC(=O)c2nc3cc(Cl)ccc3s2)c1
[1]
  MIC: 2.45 µM
[2]
  cytotoxicity at 72 h, 50 ug/ml: 18.7%
[3]
  selectivity ratio: 64

## O=C(Nc1cccc(C(F)(F)F)c1)c1nc2cc(C(F)(F)F)ccc2s1
[1]
  MIC: 16 µM
[2]
  cytotoxicity at 72 h, 50 ug/ml: 19.8%

## O=C(Nc1ccccc1N1CCOCC1)c1nc2cc(Cl)ccc2s1
[1]
  MIC: 66.9 µM

## COc1ccc(NC(=O)c2nc3cc(Cl)ccc3s2)cc1
[1]
  MIC: 78.4 µM

## COc1cc(NC(=O)c2nc3cc(C(F)(F)F)ccc3s2)cc(OC)c1OC
[1]
  MIC: 1.89 µM
[2]
  cytotoxicity at 72 h, 50 ug/ml: 23.4%
[3]
  selectivity ratio: 64

## O=C(Nc1cccc(Cl)c1)c1nc2cc(Cl)ccc2s1
[1]
  MIC: 77.3 µM

## Cc1ccc(NC(=O)c2nc3ccccc3s2)cc1
[1]
  MIC: 46.6 µM

## CCOC(=O)c1nc2ccccc2s1
[1]
  MIC: 121 µM

## CCOC(=O)c1nc2cc(Cl)ccc2s1
[1]
  MIC: 12.9 µM

## Cc1cccc(NC(=O)c2nc3cc(C(F)(F)F)ccc3s2)c1
[1]
  MIC: 4.64 µM
[2]
  cytotoxicity at 72 h, 50 ug/ml: 34.6%

## O=C(Nc1cccc([N+](=O)[O-])c1)c1nc2cc(C(F)(F)F)ccc2s1
[1]
  MIC: 68.1 µM

## O=C(Nc1ccccc1C(F)(F)F)c1nc2cc(Cl)ccc2s1
[1]
  MIC: 70.1 µM

## O=C(Nc1ccccc1C(F)(F)F)c1nc2ccccc2s1
[1]
  MIC: 38.8 µM

## COc1cccc(NC(=O)c2nc3cc(C(F)(F)F)ccc3s2)c1
[1]
  MIC: 4.43 µM
[2]
  cytotoxicity at 72 h, 50 ug/ml: 26.8%

## NC(=O)c1cnccn1 [PYRAZINAMIDE]
[1]
  MIC: 6.25 µg/mL

## Cc1ccccc1NC(=O)c1nc2ccccc2s1
[1]
  MIC: > 93.2 µM

## O=C(Nc1cccc(C(F)(F)F)c1)c1nc2ccccc2s1
[1]
  MIC: 38.8 µM

## O=C(Nc1ccc(N2CCOCC2)c(F)c1)c1nc2ccccc2s1
[1]
  MIC: > 70 µM

## Cc1cc(C)c(NC(=O)c2nc3cc(C(F)(F)F)ccc3s2)c(C)c1
[1]
  MIC: 68.6 µM

## O=C(Nc1ccccc1F)c1nc2cc(C(F)(F)F)ccc2s1
[1]
  MIC: 73.5 µM

## O=C(Nc1cccc(C(F)(F)F)c1)c1nc2cc(Cl)ccc2s1
[1]
  MIC: 70.1 µM

## O=C(Nc1ccc(N2CCOCC2)c(F)c1)c1nc2cc(Cl)ccc2s1
[1]
  MIC: 31.9 µM

## O=C(Nc1ccccc1Cl)c1nc2ccccc2s1
[1]
  MIC: 5.4 µM
[2]
  cytotoxicity at 72 h, 50 ug/ml: 24%

## COc1cc(NC(=O)c2nc3cc(Cl)ccc3s2)cc(OC)c1OC
[1]
  MIC: 66 µM

## O=C(Nc1ccc(F)cc1)c1nc2ccccc2s1
[1]
  MIC: > 91.8 µM
